Assay results published in patent US4161520A, “Method of treating hypertension” (priority 1976, dated 1979).

Tested on: DOCA-Na. rat
Experiment: Comparative antihypertensive activity of polyether ionophores in the DOCA-Na rat (Example 3, Table III)
Format: in vivo
Details: oral, five-day period, daily dose 1/100 of oral LD50 up to 10 mg/kg/day
Protocol: Using bromolasalocid as a standard for comparison, a number of polyether ionophores were tested for antihypertensive activity. The tests were conducted utilizing single oral dosages in the DOCA-Na. rat over a five-day period with dosing discontinued thereafter. Blood pressure monitoring was carried out for the five-day period and daily after cessation of dosing until blood pressure returned to pre-drug levels. […] The daily dosage was calculated by using one-one hundredth (1/100) of the oral (per os) toxicity (LD50) up to a maximum of 10 mg/kg/day. The antihypertensive activity expressed as AHR (Subacute antihypertensive ratio) was calculated using bromolasalocid as the standard reference (Table III).

CC[C@@H](C(=O)[C@@H](C)[C@@H](O)[C@H](C)CCc1c(Br)cc(C)c(O)c1C(=O)O)[C@H]1O[C@](CC)([C@H]2CC[C@](O)(CC)[C@H](C)O2)C[C@@H]1C [bromolasalocid]
ONSET TO MAX. RESPONSE: 4 days
DURATION OF EFFECT (monitored until return to pre-drug levels): 15 days
